The record followed here is patent US20240382488A1, “NEK7 INHIBITORS” (Halia Therapeutics, Inc., priority 2021, published 2024).

The target in this assay is T1, full-length recombinant human Nek7 (Homo sapiens, UniProt Q8TDX7).
T1 construct: full-length recombinant human Nek7; GST (N); purchased SignalChem N09-10G; host or cells: Sf9 insect cells (baculovirus)
Put plainly: NEK7 Enzymatic Assay. Particulars: radiometric [32P]-ATP kinase assay, casein substrate 20 μM, Nek7 70 nM, 2 hours room temperature. Format: biochemical. The method, then: Casein substrate (from bovine milk, hydrolyzed and partially dephosphorylated mixture of α, β and κ caseins, obtained from Sigma Aldrich, catalogue #C4765, diluted in distilled water to a final concentration of 1 mg/mL, assay concentration 20 μM) and full-length recombinant human Nek7 (expressed by baculovirus in Sf9 insect cells using a N-terminal GST tag, obtained from SignalChem, catalogue #N09-10G, 0.1 μg/μL, assay concentration 70 nM) were mixed in assay buffer (20 mM Hepes pH 7.5, 10 mM MgCl2, 1 mM EGTA, 0.02% Brij35, 0.02 mg/ml BSA, 0.1 mM […], 2 mM DTT, 1% DMSO). Compounds of interest (in DMSO, serial 3-fold dilution from 10 μM to 0.5 nM) or control (1% DMSO) were dispensed into the kinase reaction mixture by Acoustic technology (Echo550; nanoliter range). After incubation at room temperature for 20 minutes, the kinase reaction was initiated by addition of [^32P]-ATP (Specific activity 10 μCi/μl) and the mixture was incubated at room temperature for 2 hours. The reaction was then stopped by spotting the reaction mixture on strips of phosphocellulose P81 paper. Following washing, the radioactivity of the P81 paper was measured and kinase activity data were expressed as the percent remaining kinase activity in test samples compared to vehicle (dimethyl sulfoxide) reactions. IC50 values and curve fits were obtained using Prism (GraphPad Software).
Representative compounds were tested for inhibitory activity against NEK7 according to the procedure described above.

T1 sequence (Q8TDX7 whole entry): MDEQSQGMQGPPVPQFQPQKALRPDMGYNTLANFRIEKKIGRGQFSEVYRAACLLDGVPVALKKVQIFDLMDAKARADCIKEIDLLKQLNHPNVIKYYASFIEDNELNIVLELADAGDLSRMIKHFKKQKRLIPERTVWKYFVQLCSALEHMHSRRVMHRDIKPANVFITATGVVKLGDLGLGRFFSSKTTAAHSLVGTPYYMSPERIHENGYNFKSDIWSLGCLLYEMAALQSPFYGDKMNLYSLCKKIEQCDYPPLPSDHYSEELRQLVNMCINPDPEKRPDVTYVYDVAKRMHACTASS

For the compound `CC(C)n1cc(-c2ccc3c(c2F)CCN3C(=O)Cc2ccc(F)c(C(F)(F)F)c2)c2c(N)ncnc21` [Compound I-13, 1-(5-(4-amino-7-isoprop-yl-7H-pyrrolo[2,3-d]pyr-imidin-5-yl)-4-fluoroind-olin-1-yl)-2-(4-fluoro-3-(trifluoromethyl)phenyl)-ethan-1-one], the IC50 was in the range of 0.151 to 0.3 µM. Then `Nc1ncnc2c1c(-c1ccc3c(c1F)CCN3C(=O)Cc1cc(C(F)(F)F)ccc1F)cn2CCC(=O)O` [Compound I-34, 3-(4-amino-5-(4-fluoro-1-(2-(2-fluoro-5-(tri-fluoromethyl)phenyl)-acetyl)indolin-5-yl)-7H-pyrrolo[2,3-d]pyrimidin-7-yl)propanoic acid], with under 0.15 µM. With `CC(C)n1nc(-c2ccc3c(c2F)CCN3C(=O)Cc2ccc(F)cc2)c2c(N)ncnc21` [Compound I-3, 1-(5-(4-amino-1-iso-propyl-1H-pyrazolo[3,4-d]pyrimidin-3-yl)-4-fluoroindolin-1-yl)-2-(4-fluorophenyl)ethan-1-one], the IC50 was over 1.5 µM.

With `CC(C)(O)Cn1cc(-c2ccc3c(c2F)CCN3C(=O)Cc2cc(C(F)(F)F)ccc2F)c2c(N)ncnc21` [Compound I-23, 1-(5-(4-amino-7-(2-hydroxy-2-methylprop-yl)-7H-pyrrolo[2,3-d]-pyrimidin-5-yl)-4-fluoroindolin-1-yl)-2-(2-fluoro-5-(trifluoro-methyl)phenyl)ethan-1-one], the concentration for half-maximal inhibition (IC50) was under 0.15 µM. For `Nc1ncnc2c1c(-c1ccc3c(c1F)CCN3C(=O)Cc1cc(C(F)(F)F)ccc1F)cn2CCO` [Compound I-18, 1-(5-(4-amino-7-(2-hydroxyethyl)-7H-pyr-rolo[2,3-d]pyrimidin-5-yl)-4-fluoroindolin-1-yl)-2-(2-fluoro-5-(tri-fluoromethyl)phenyl)-ethan-1-one], the IC50 is under 0.15 µM.

With `Nc1ncnc2[nH]cc(-c3ccc4c(c3F)CCN4C(=O)Cc3cc(C(F)(F)F)ccc3F)c12` [Compound I-22, 1-(5-(4-amino-7H-pyr-rolo[2,3-d]pyrimidin-5-yl)-4-fluoroindolin-1-yl)-2-(2-fluoro-5-(tri-fluoromethyl)phenyl)-ethan-1-one], the IC50 is under 0.15 µM. As for `CN1CC(n2cc(-c3ccc4c(c3F)CCN4C(=O)Cc3cc(C(F)(F)F)ccc3F)c3c(N)ncnc32)C1` [Compound I-33, 1-(5-(4-amino-7-(1-methylazetidin-3-yl)-7H-pyrrolo[2,3-d]pyr-imidin-5-yl)-4-fluoroin-dolin-1-yl)-2-(2-fluoro-5-(trifluoromethyl)phen-yl)ethan-1-one], the figure is under 0.15 µM; as for `CN1CCN(Cc2ccc(CC(=O)N3CCc4c3ccc(-c3cn(C5CC5)c5ncnc(N)c35)c4F)cc2C(F)(F)F)CC1` [Compound I-25, 1-(5-(4-amino-7-cyclo-propyl-7H-pyrrolo[2,3-d]pyrimidin-5-yl)-4-fluoroindolin-1-yl)-2-(4-((4-methylpiperazin-1-yl)methyl)-3-(tri-fluoromethyl)phenyl)-ethan-1-one], 0.301 to 0.5 µM.

For `Nc1ncnc2c1c(-c1ccc3c(c1F)CCN3C(=O)Cc1cc(C(F)(F)F)ccc1F)nn2CCO` [Compound I-19, 1-(5-(4-amino-1-(2-hydroxyethyl)-1H-pyr-azolo[3,4-d]pyrimidin-3-yl)-4-fluoroindolin-1-yl)-2-(2-fluoro-5-(tri-fluoromethyl)phenyl)-ethan-1-one], the IC50 was under 0.15 µM.

As for `Cc1cccc(CC(=O)N2CCc3c2ccc(-c2cn(C4CC4)c4ncnc(N)c24)c3F)n1` [Compound I-21, 1-(5-(4-amino-7-cyclo-propyl-7H-pyrrolo[2,3-d]pyrimidin-5-yl)-4-fluoroindolin-1-yl)-2-(6-methylpyridin-2-yl)-ethan-1-one], the IC50 is under 0.15 µM. On to `COCCn1cc(-c2ccc3c(c2F)CCN3C(=O)Cc2cc(C(F)(F)F)ccc2F)c2c(N)ncnc21` [Compound I-26, 1-(5-(4-amino-7-(2-methoxyethyl)-7H-pyr-rolo[2,3-d]pyrimidin-5-yl)-4-fluoroindolin-1-yl)-2-(2-fluoro-5-(tri-fluoromethyl)phenyl)-ethan-1-one], for which the 50% inhibitory concentration (IC50) is under 0.15 µM. As for `COCCn1nc(-c2ccc3c(c2F)CCN3C(=O)Cc2cc(C(F)(F)F)ccc2F)c2c(N)ncnc21` [Compound I-24, 1-(5-(4-amino-1-(2-methoxyethyl)-1H-pyrazolo[3,4-d]pyrim-idin-3-yl)-4-fluoroindo-lin-1-yl)-2-(2-fluoro-5-(trifluoromethyl)phen-yl)ethan-1-one], the figure is under 0.15 µM. As for `Nc1ncnc2c1c(-c1ccc3c(c1F)CCN3C(=O)Cc1cc(C(F)(F)F)ccc1F)cn2C1CC(O)C1` (centres unmarked) [Compound I-27, 1-(5-(4-amino-7-(3-hydroxycyclobutyl)-7H-pyrrolo[2,3-d]pyrimidin-5-yl)-4-fluoroindolin-1-yl)-2-(2-fluoro-5-(tri-fluoromethyl)phenyl)-ethan-1-one], the figure is under 0.15 µM; as for `Nc1nccc2c1c(-c1ccc3c(c1F)CCN3C(=O)Cc1cc(C(F)(F)F)ccc1F)nn2C1CC1` [Compound I-29, 1-(5-(4-amino-1-cyclo-propyl-1H-pyrazolo[4,3-c]pyridin-3-yl)-4-fluoro-indolin-1-yl)-2-(2-fluoro-5-(trifluoromethyl)phen-yl)ethan-1-one], under 0.15 µM. As for `CN1CCC(n2cc(-c3ccc4c(c3F)CCN4C(=O)Cc3cc(C(F)(F)F)ccc3F)c3c(N)ncnc32)CC1` [Compound I-28, 1-(5-(4-amino-7-(1-methylpiperidin-4-yl)-7H-pyrrolo[2,3-d]pyr-imidin-5-yl)-4-fluoro-indolin-1-yl)-2-(2-fluoro-5-(trifluorometh-yl)phenyl)ethan-1-one], the figure is under 0.15 µM; as for `CN1CCN(Cc2cc(CC(=O)N3CCc4c3ccc(-c3cn(C5CC5)c5ncnc(N)c35)c4F)cc(C(F)(F)F)c2)CC1` [Compound I-32, 1-(5-(4-amino-7-cyclo-propyl-7H-pyrrolo[2,3-d]pyrimidin-5-yl)-4-fluoroindolin-1-yl)-2-(3-((4-methylpiperazin-1-yl)methyl)-5-(tri-fluoromethyl)phenyl)-ethan-1-one], over 1.5 µM; as for `CN1CCN(Cc2ccc(C(F)(F)F)cc2CC(=O)N2CCc3c2ccc(-c2cn(C4CC4)c4ncnc(N)c24)c3F)CC1` [Compound I-30, 1-(5-(4-amino-7-cyclo-propyl-7H-pyrrolo[2,3-d]pyrimidin-5-yl)-4-fluoroindolin-1-yl)-2-(2-((4-methylpiperazin-1-yl)methyl)-5-(trifluoro-methyl)phenyl)ethan-1-one], over 1.5 µM. With `Nc1ncnc2c1c(-c1ccc3c(c1Cl)CCN3C(=O)Cc1cc(C(F)(F)F)ccc1F)nn2C1CC1` [Compound I-15, 1-(5-(4-amino-1-cyclo-propyl-1H-pyrazolo[3,4-d]pyrimidin-3-yl)-4-chloroindolin-1-yl)-2-(2-fluoro-5-(trifluoro-methyl)phenyl)ethan-1-one], the IC50 is under 0.15 µM. As for `CN1CCCC(n2cc(-c3ccc4c(c3F)CCN4C(=O)Cc3cc(C(F)(F)F)ccc3F)c3c(N)ncnc32)C1` (centres unmarked) [Compound I-31, 1-(5-(4-amino-7-(1-methylpiperidin-3-yl)-7H-pyrrolo[2,3-d]pyr-imidin-5-yl)-4-fluoroin-dolin-1-yl)-2-(2-fluoro-5-(trifluoromethyl)phen-yl)ethan-1-one], the figure is under 0.15 µM; as for `Nc1ncnc2c1c(-c1ccc3c(c1F)CCN3C(=O)Cc1cccc(C(F)(F)F)n1)cn2C1CC1` [Compound I-20, 1-(5-(4-amino-7-cyclo-propyl-7H-pyrrolo[2,3-d]pyrimidin-5-yl)-4-fluoroindolin-1-yl)-2-(6-(trifluoromethyl)pyr-idin-2-yl)ethan-1-one], under 0.15 µM.
